Results taken from patent US7919077B2, “Pharmaceutical compositions comprising CCL2 and use of same for the treatment of inflammation” (Yeda Research and Development Co. Ltd., priority 2006, dated 2011).

Legend:
[1] = TNBS colitis mouse model; type: in vivo, mice; conditions: dexamethasone i.p. daily
Experimental: TNBS colitis model and treatment with CCL2—TNBS colitis was induced as previously described [Ohkawara et al. (2002) Gastroenterology, 123:256]. Briefly, mice were anesthetized by i.p. injection (35 μl per mouse) of a mixture containing 85% ketamine and 15% xylazine (20 mg/ml). Next, 100 μl of TNBS [55% volume of 50% ethanol mixed with 45% volume of TNBS solution ([…]; Sigma-Aldrich)] was infused into the colonic lumen (about 3.5 cm of the anal verge) via 1 ml syringe attached to a feeding needle. Treated mice were weighted daily and visually inspected for clinical symptoms, such as rectal bleeding and diarrhea.
TNBS mice were divided into 6 groups. CCL2 groups (10 mice in each group) were injected i.p. daily with different CCL2 concentrations (30 ng, 60 ng or 180 ng) in 200 μl of PBS from day 0 (immediately after TNBS induction) to day 6. Control groups (10 mice in each group) were injected i.p. daily with 200 μl PBS alone. Additionally, 5 mice were injected i.p. daily with dexamethasone; and 1 mouse which was not treated and served as negative control for future histology and weight.
Macroscopic and histological assessment of colitis—An observer blind to the experimental procedure scored colitis for clinical manifestation of disease. The colon was macroscopically examined (×5 magnification) to evaluate the macroscopic lesions according to the Wallace criteria. The Wallace score ranks macroscopic colon lesions on a scale from 0 to 16 based on criteria reflecting inflammation, such as hyperemia, thickening of the bowel and the extent of ulceration. The colon was cut lengthwise and fixed in 4% paraformaldehyde for future histology.

[2] = test system: naïve T cells; test: Cytoskeleton rearrangement (actin polymerization), naïve T cells; type: cell-based, mice; conditions: CCL21 stimulation in presence of chemokine 0.1 ng/ml; FIG. 2e
Experimental: Cytoskeleton rearrangement—T cells were pre-incubated for 30 minutes in the presence or absence of CCL2 (0.1 ng/ml), and then stimulated with either CXCL12 (0.1 mg/ml PeproTech, Inc., Rocky Hill N.J.), SLC (CCL21, 0.4 mg/ml, PeproTech, Inc., Rocky Hill, N.J.), Rantes (0.1 mg/ml, R&D systems Minneapolis, Minn.), MIP-1β(0.1 mg/ml, R&D systems Minneapolis, Minn.) or Eotoxin (0.1 mg/ml R&D systems Minneapolis, Minn.) for 15 seconds. Cells were then immediately fixed with paraformaldehyde, permeabilized and their intracellular F-actin was stained with FITC-phalloidin (Sigma-Aldrich, St. Louis, Mo.), and then analyzed by flow cytometry to determine the state of their cytoskeleton, as previously described [Flaishon, L. F., et al., J. Biol. Chem. 276:46701 (2001)].

[3] = test system: human T cells interacting with ICAM-1 (LFA-1); test: Laminar flow adhesion assay on ICAM-1 with co-immobilized CCL21; type: cell-based; conditions: low dose chemokine pretreatment
Experimental: (§1) Laminar flow adhesion assays—Purified VCAM-1 or ICAM-1-Fc (both from R&D Systems, Minneapolis, Minn.) were coated with or without CCL21 (R&D Systems) on polystyrene plates as previously described [Grabovsky et al., J Exp Med. (2000) 192:495-506; Sigal et al., J Immunol. (2000) 165:442-452]. The polystyrene plates were each assembled on the lower wall of the flow chamber as previously described [Feigelson et al., J Biol Chem. (2001) 276:13891-13901]. All flow experiments were conducted at 37° C. Cells were washed with cation-free H/H medium, resuspended in binding medium (H/H medium supplemented with 1 mM CaCl2 and 1 mM MgCl2) and perfused through the flow chamber at low shear stress (0.5-0.75 dyn/cm^2) for 2 minutes. Tethers were defined as transient or rolling if cells attached briefly (<2 seconds) to the substrate and as arrests if immediately arrested and remaining stationary for at least 5 seconds of continuous flow. Frequencies of adhesive categories within differently pretreated cells were determined as a percentage of cells flowing immediately over the substrates, as previously described [Grabovsky et al., supra]. To assess resistance to detachment over time, accumulated cells were subjected to a shear stress of 5 dyn/cm^2 for 5 minutes. At the indicated time points, the number of cells that remained bound was expressed relative to T cell population originally accumulated in the first 2 minute period of the assay. Over 90% of cellular tethers to VCAM-1 or ICAM-1 were blocked by pretreating cells with VLA-4 or LFA-1 blockers respectively.

[4] = test system: human T cells interacting with VCAM-1 (VLA-4); test: Laminar flow adhesion assay on VCAM-1 with co-immobilized CCL21; type: cell-based; conditions: low dose chemokine pretreatment
Experimental: as §1

C[C@@H]1C[C@H]2[C@@H]3CCC4=CC(=O)C=C[C@]4(C)[C@@]3(F)[C@@H](O)C[C@]2(C)[C@@]1(O)C(=O)CO [dexamethasone, reference compound]
Colon length (cm) [1]: 8.17 ± 0.76 cm | Diarrhea (# of mice) ([1]; 3 mice): 0 # of mice | Colitis score ([1]; Wallace score 0 to 16, mean±SEM): 0.67 ± 0.58

Eotoxin: comparator chemokine (R&D systems) [reference compound]
inhibitory effect of low levels of chemokine on actin polymerization of naïve T cells [2]: no inhibitory effect

CXCL12: chemokine, chemoattractant for T cells; tested at low dose as comparator [reference compound]
inhibitory effect of low levels of chemokine on actin polymerization of naïve T cells [2]: no inhibitory effect | post arrest adhesion strengthening on ICAM-1 (resistance to detachment) ([3]; high shear stress 5 dyn/cm^2, FIG. 6b): retained | LFA-1 activation by surface bound CCL21 (arrest on ICAM-1) ([3]; shear stress 0.5 dyn/cm^2, FIG. 6a): retained | post arrest adhesion strengthening on VCAM-1 (resistance to detachment) ([4]; high shear stress 5 dyn/cm^2, FIG. 6d): retained | VLA-4 activation by surface bound CCL21 (arrest on VCAM-1) ([4]; shear stress 0.75 dyn/cm^2, FIG. 6c): retained

B1: Rantes: comparator chemokine (R&D systems) (protein, UniProt P13501 24-91, looked up)
C-C motif chemokine 5: SPYSSDTTPCCFAYIARPLPRAHIKEYFYTSGKCSNPAVVFVTRKNRQVCANPEKKWVREYINSLEMS
inhibitory effect of low levels of chemokine on actin polymerization of naïve T cells [2]: no inhibitory effect

B2: Mip1β: comparator chemokine (R&D systems) (protein, UniProt P13236 24-92, looked up)
C-C motif chemokine 4: APMGSDPPTACCFSYTARKLPRNFVVDYYETSSLCSQPAVVFQTKRSKQVCADPSESWVQEYVYDLELN
inhibitory effect of low levels of chemokine on actin polymerization of naïve T cells [2]: no inhibitory effect
